Data set [1] has as its system HDACs (HeLa cell nuclear extracts). Kind of data set: HDAC enzymatic activity, Biomol Color de Lys system. The settings on record: 1 hour, 25° C. In kind it is biochemical. A digest of the protocol: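 HeLa nuclear extract incubated with serially diluted compound and […] artificial substrate in 50 mM Tris/Cl pH 8.0, 137 mM NaCl, 2.7 mM KCl, 1 mM MgCl2. Run 1 h at 25 °C, stopped with developer. Fluorescence read (ex 350-380, em 440-460 nm); IC50 from sigmoidal dose-response fit.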

The next data set has as its target T1, PI3Kα (p110α/p85α) (Homo sapiens, UniProt P42336).
T1 construct: GST (N); made in house; host or cells: Baculovirus-infected Sf9 cells
Kind of data set: PI3Kα ADP-Glo assay. The format is biochemical. Conditions: 20 μM PIP2, 10 μM ATP, 30 minutes. In short, it runs like this: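 Recombinant full-length human GST-p110α/His-p85α, co-expressed in Sf9 cells, was incubated 30 min at room temperature with 20 μM PIP2 and 10 μM ATP. The buffer was 50 mM HEPES pH 7.4, 150 mM NaCl, 5 mM MgCl2, 1 mM DTT, 3 µM orthovanadate and 0.5% DMSO. ADP formed was detected by ADP-Glo luminescence.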

As usually defined, the melting point is the temperature of the solid-liquid transition. The IC50 is the concentration that gives 50% inhibition. A lower IC50 goes with greater potency in that assay.

The structures appear in SMILES notation.

T1 sequence (P42336 whole entry): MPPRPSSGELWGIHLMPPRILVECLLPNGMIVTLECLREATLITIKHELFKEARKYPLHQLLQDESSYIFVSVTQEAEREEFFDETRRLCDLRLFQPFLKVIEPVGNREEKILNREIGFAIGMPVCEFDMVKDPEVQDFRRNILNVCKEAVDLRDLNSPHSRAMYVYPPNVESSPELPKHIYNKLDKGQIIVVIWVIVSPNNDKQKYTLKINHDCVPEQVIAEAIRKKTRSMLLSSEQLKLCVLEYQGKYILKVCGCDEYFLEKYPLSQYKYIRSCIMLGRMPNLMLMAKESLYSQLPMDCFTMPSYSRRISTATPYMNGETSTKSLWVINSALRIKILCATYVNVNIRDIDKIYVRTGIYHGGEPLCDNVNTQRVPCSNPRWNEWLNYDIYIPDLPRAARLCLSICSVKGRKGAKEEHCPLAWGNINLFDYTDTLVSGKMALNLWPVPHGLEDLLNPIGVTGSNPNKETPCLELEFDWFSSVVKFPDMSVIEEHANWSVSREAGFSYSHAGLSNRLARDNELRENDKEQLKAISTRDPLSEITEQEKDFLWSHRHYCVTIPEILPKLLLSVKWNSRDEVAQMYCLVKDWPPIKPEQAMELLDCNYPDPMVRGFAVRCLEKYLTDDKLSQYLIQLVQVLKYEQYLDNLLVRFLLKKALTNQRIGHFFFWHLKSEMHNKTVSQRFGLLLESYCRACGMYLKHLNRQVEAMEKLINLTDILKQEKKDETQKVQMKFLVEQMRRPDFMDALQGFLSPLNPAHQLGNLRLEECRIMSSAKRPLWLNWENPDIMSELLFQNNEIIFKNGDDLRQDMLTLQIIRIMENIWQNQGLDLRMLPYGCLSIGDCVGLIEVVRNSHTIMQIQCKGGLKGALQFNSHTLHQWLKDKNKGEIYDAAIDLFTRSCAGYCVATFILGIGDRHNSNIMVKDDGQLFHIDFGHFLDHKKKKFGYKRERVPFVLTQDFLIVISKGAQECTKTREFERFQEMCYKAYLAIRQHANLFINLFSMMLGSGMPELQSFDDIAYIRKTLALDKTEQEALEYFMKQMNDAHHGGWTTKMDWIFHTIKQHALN
T1 sequence (P27986 whole entry partner): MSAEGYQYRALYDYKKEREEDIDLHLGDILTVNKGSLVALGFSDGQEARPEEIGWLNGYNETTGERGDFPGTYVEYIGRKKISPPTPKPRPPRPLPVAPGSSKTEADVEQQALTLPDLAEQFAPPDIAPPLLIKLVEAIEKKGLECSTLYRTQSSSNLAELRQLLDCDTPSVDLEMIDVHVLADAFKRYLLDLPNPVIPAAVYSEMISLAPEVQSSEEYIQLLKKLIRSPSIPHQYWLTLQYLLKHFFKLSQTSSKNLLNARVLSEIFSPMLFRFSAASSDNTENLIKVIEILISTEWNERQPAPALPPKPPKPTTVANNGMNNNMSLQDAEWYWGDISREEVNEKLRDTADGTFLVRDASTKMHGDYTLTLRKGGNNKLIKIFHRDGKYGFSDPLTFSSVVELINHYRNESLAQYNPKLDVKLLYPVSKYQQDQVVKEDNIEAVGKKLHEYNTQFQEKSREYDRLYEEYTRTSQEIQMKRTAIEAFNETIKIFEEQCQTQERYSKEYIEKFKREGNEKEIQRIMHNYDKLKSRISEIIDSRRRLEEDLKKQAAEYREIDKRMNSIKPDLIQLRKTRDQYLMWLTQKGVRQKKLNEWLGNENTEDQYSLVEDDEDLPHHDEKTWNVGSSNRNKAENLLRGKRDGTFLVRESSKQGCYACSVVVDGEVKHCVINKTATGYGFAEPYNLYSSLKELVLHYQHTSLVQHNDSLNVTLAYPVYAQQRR

`CN(Cc1cc2nc(-c3ccc(N)c(O)c3)nc(N3CCOCC3)c2s1)c1ncc(C(=O)NO)cn1` [Compound 279, 2-(((2-(4-Amino-3-hydroxyphenyl)-4-morpholinothieno[3,2-d]pyrimidin-6-yl)methyl)(methyl)amino)-N-hydroxypyrimidine-5-carboxamide] came in with a melting point of 214 to 218 °C. Further, the IC50 in data set [1] was under 100 nM. On PI3Kα (p110α/p85α), the IC50 was under 100 nM.
For the molecule `CN(Cc1cc2nc(-c3ccc4c(c3)CC(=O)N4)nc(N3CCOCC3)c2s1)c1ncc(C(=O)NO)cn1` [Compound 194, N-hydroxy-2-(methyl((4-morpholino-2-(2-oxoindolin-5-yl)thieno[3,2-d]pyrimidin-6-yl)methyl)amino)pyrimidine-5-carboxamide], the melting point is 270 °C (dec.). The IC50 in data set [1] is under 100 nM. The IC50 against PI3Kα (p110α/p85α) was over 10000 nM.
For `CC(=O)c1cc(-c2nc(N3CCOCC3)c3sc(CN(C)c4ncc(C(=O)NO)cn4)cc3n2)ccc1N` [Compound 281, 2-{[2-(3-Acetyl-4-amino-phenyl)-4-morpholin-4-yl-thieno[3,2-d]pyrimidin-6-ylmethyl]-methyl-amino}-pyrimidine-5-carboxylic acid hydroxyamide], the melting point is 156 to 158 °C. In data set [1], this molecule came in with an IC50 of under 100 nM. In addition, the IC50 against PI3Kα (p110α/p85α) lay within 100 to 1000 nM.
The corresponding values for `O=C(CCCCCCN1CCN(Cc2cc3nc(-c4cccc5[nH]ncc45)nc(N4CCOCC4)c3s2)CC1)NO` [Compound 13, 7-(4-((2-(1H-indazol-4-yl)-4-morpholinothieno[3,2-d]pyrimidin-6-yl)methyl)piperazin-1-yl)-N-hydroxyheptanamide] are 119 to 122 °C, 100 to 1000 nM and 100 to 1000 nM.
With `CS(=O)(=O)N1CCN(Cc2cc3nc(-c4ccc(OCCCCCC(=O)NO)cc4)nc(N4CCOCC4)c3s2)CC1` [Compound 320, N-Hydroxy-6-(4-(6-((4-(methylsulfonyl)piperazin-1-yl)methyl)-4-morpholinothieno[3,2-d]pyrimidin-2-yl)phenoxy)hexanamide], the melting point was 140 to 142 °C. The IC50 in data set [1] lay within 100 to 1000 nM. On PI3Kα (p110α/p85α), this molecule gave an IC50 of 100 to 1000 nM.
In the case of `CN(Cc1cc2nc(-c3cccc(SCCO)c3)nc(N3CCOCC3)c2s1)c1ncc(C(=O)NO)cn1` [Compound 290, N-Hydroxy-2-(((2-(3-(2-hydroxyethylthio)phenyl)-4-morpholinothieno[3,2-d]pyrimidin-6-yl)methyl)(methyl)amino)pyrimidine-5-carboxamide], the melting point is 188 to 192 °C. For the same molecule, in data set [1], the IC50 is under 100 nM. The molecule further gave an IC50 against PI3Kα (p110α/p85α) of 100 to 1000 nM.
The corresponding values for `Cc1ncc(-c2nc(N3CCOCC3)c3sc(NCCCCC(=O)NO)cc3n2)cn1` [Compound 229, N-Hydroxy-5-(2-(2-methylpyrimidin-5-yl)-4-morpholinothieno[3,2-d]pyrimidin-6-ylamino)pentanamide] are 248 to 252 °C, under 100 nM and under 100 nM.
With `Nc1ccc(-c2nc(N3CCOCC3)c3sc(S(=O)(=O)Nc4ncc(C(=O)NO)cn4)cc3n2)cc1` [Compound 271, 2-[2-(4-Amino-phenyl)-4-morpholin-4-yl-thieno[3,2-d]pyrimidine-6-sulfonylamino]-pyrimidine-5-carboxylic acid hydroxyamide], the melting point fell in the range of 197 to 205 °C. In data set [1], this molecule yielded an IC50 of under 100 nM. This molecule also gave an IC50 on PI3Kα (p110α/p85α) of under 100 nM.
On to `CN(Cc1cc2nc(-c3cccc4[nH]ccc34)nc(N3CCOCC3)c2s1)c1ncc(C(=O)NO)cn1` [Compound 176, 2-(((2-(1H-indol-4-yl)-4-morpholinothieno[3,2-d]pyrimidin-6-yl)methyl)(methyl)amino)-N-hydroxypyrimidine-5-carboxamide], for which the melting point was in the range of 200 to 212 °C. In data set [1], this molecule had an IC50 of under 100 nM. This molecule also gave an IC50 against PI3Kα (p110α/p85α) of 100 to 1000 nM.
Consider `CN(Cc1cc2nc(-c3ccc(N)c(N)c3)nc(N3CCOCC3)c2s1)c1ncc(C(=O)NO)cn1` [Compound 156, 2-(((2-(3,4-diaminophenyl)-4-morpholinothieno[3,2-d]pyrimidin-6-yl)methyl)(methyl)amino)-N-hydroxypyrimidine-5-carboxamide], for which the melting point was in the range of 222 to 225 °C. This molecule also had an IC50 in data set [1] of under 100 nM. In addition, on PI3Kα (p110α/p85α), the IC50 was 100 to 1000 nM.
`CNc1ncc(-c2nc(N3CCOCC3)c3sc(NCCCCC(=O)NO)cc3n2)cn1` [Compound 227, N-Hydroxy-5-(2-(2-(methylamino)pyrimidin-5-yl)-4-morpholinothieno[3,2-d]pyrimidin-6-ylamino)pentanamide] gave a melting point of 206 to 210 °C. This molecule also gave an IC50 in data set [1] of under 100 nM. Also, the IC50 on PI3Kα (p110α/p85α) was under 100 nM.
`CN(Cc1cc2nc(-c3cccc4[nH]ncc34)nc(Nc3ccccc3)c2s1)c1ncc(C(=O)NO)cn1` [Compound 164, 2-(((2-(1H-indazol-4-yl)-4-(phenylamino)thieno[3,2-d]pyrimidin-6-yl)methyl)(methyl)amino)-N-hydroxypyrimidine-5-carboxamide] showed a melting point of 232 to 235 °C. Further, the IC50 in data set [1] was under 100 nM. The molecule also returned an IC50 at PI3Kα (p110α/p85α) of under 100 nM.
Turning to `CN(Cc1cc2nc(-c3ccc(N)c(C#N)c3)nc(N3CCOCC3)c2s1)c1ncc(C(=O)NO)cn1` [Compound 280, 2-(((2-(4-Amino-3-cyanophenyl)-4-morpholinothieno[3,2-d]pyrimidin-6-yl)methyl)(methyl)amino)-N-hydroxypyrimidine-5-carboxamide], the melting point is 237 to 240 °C. Moreover, the IC50 in data set [1] is under 100 nM. On PI3Kα (p110α/p85α), this molecule yielded an IC50 of 100 to 1000 nM.
`CCN(CC)c1ccc(-c2nc(N3CCOCC3)c3sc(CN(C)c4ncc(C(=O)NO)cn4)cc3n2)cc1` [Compound 154, 2-(((2-(4-(Diethylamino)phenyl)-4-morpholinothieno[3,2-d]pyrimidin-6-yl)methyl)(methyl)amino)-N-hydroxypyrimidine-5-carboxamide]: the melting point was 192 to 196 °C. In data set [1], the IC50 is under 100 nM. The IC50 at PI3Kα (p110α/p85α) was over 10000 nM.
The corresponding values for `Nc1ccc(-c2nc(N3CCOCC3)c3sc(CNc4ncc(C(=O)NO)cn4)cc3n2)cc1` [Compound 211, 2-((2-(4-aminophenyl)-4-morpholinothieno[3,2-d]pyrimidin-6-yl)methylamino)-N-hydroxypyrimidine-5-carboxamide] are 217 to 223 °C, under 100 nM and 100 to 1000 nM.
`CN(Cc1cc2nc(-c3ccc(C#N)cc3)nc(N3CCOCC3)c2s1)c1ncc(C(=O)NO)cn1` [Compound 146, 2-(((2-(4-cyanophenyl)-4-morpholinothieno[3,2-d]pyrimidin-6-yl)methyl)(methyl)amino)-N-hydroxypyrimidine-5-carboxamide] displayed a melting point of 214 to 216 °C. In data set [1], this molecule gave an IC50 of under 100 nM. Moreover, the IC50 against PI3Kα (p110α/p85α) is over 10000 nM.
The corresponding values for `CC(C)(C)CN(Cc1cc2nc(-c3cccc4[nH]ncc34)nc(N3CCOCC3)c2s1)c1ncc(C(=O)NO)cn1` [Compound 83, 2-(((2-(1H-indazol-4-yl)-4-morpholinothieno[3,2-d]pyrimidin-6-yl)methyl)(neopentyl)amino)-N-hydroxypyrimidine-5-carboxamide] are 240 to 242 °C, 1000 to 10000 nM and 100 to 1000 nM.
The molecule `CN(Cc1cc2nc(-c3ccc(CN)cc3)nc(N3CCOCC3)c2s1)c1ncc(C(=O)NO)cn1` [Compound 135, 2-(((2-(4-(aminomethyl)phenyl)-4-morpholinothieno[3,2-d]pyrimidin-6-yl)methyl)(methyl)amino)-N-hydroxypyrimidine-5-carboxamide] registered a melting point of 184 to 186 °C. The molecule also registered a 50% inhibitory concentration (IC50) in data set [1] of under 100 nM. Besides, at PI3Kα (p110α/p85α), the IC50 was in the range of 100 to 1000 nM.
For `CN(Cc1cc2nc(-c3ccc(F)cc3)nc(N3CCOCC3)c2s1)c1ncc(C(=O)NO)cn1` [Compound 200, 2-(((2-(4-fluorophenyl)-4-morpholinothieno[3,2-d]pyrimidin-6-yl)methyl)(methyl)amino)-N-hydroxypyrimidine-5-carboxamide], in that order: 168 to 170 °C, under 100 nM and over 10000 nM.
For `CN(Cc1cc2nc(-c3ccc(C(F)(F)F)cc3)nc(N3CCOCC3)c2s1)c1ncc(C(=O)NO)cn1` [Compound 202, N-hydroxy-2-(methyl((4-morpholino-2-(4-(trifluoromethyl)phenyl)thieno[3,2-d]pyrimidin-6-yl)methyl)amino)pyrimidine-5-carboxamide], in that order: 222 to 223 °C, under 100 nM and 100 to 1000 nM.
The corresponding values for `Cc1ccc(-c2nc(N3CCOCC3)c3sc(CN(C)c4ncc(C(=O)NO)cn4)cc3n2)cc1` [Compound 201, N-hydroxy-2-(methyl((4-morpholino-2-p-tolylthieno[3,2-d]pyrimidin-6-yl)methyl)amino)pyrimidine-5-carboxamide] are 170 to 172 °C, under 100 nM and 100 to 1000 nM.
`CNc1ccc(-c2nc(N3CCOCC3)c3sc(C(C)N(C)c4ncc(C(=O)NO)cn4)cc3n2)cn1` (stereo not drawn) [Compound 237, N-Hydroxy-2-(methyl(1-(2-(6-(methylamino)pyridin-3-yl)-4-morpholinothieno[3,2-d]pyrimidin-6-yl)ethyl)amino)pyrimidine-5-carboxamide] had a melting point of 270 to 275 °C. Moreover, the half-inhibitory concentration (IC50) in data set [1] was under 100 nM. Further, the IC50 against PI3Kα (p110α/p85α) is under 100 nM.

The values above are taken from patent US20130102595A1 (Curis, Inc., priority 2011, published 2013).
